Measurements taken from patent US20240285664A1, “LINE-1 INHIBITORS AS COGNITIVE ENHANCERS” (TRANSPOSON THERAPEUTICS, INC., priority 2021, published 2024).
“Also recorded” adds a separate entry of the source. Where two headings read alike, the source gives them in different places.

Test system: human LINE-1
Experiment: Human LINE-1 retrotransposition assay (HeLa cell-based dual-luciferase reporter)
Details: HeLa cells; for IC50: reporter plasmid pYX017, 72 h incubation, Firefly/Renilla luciferase, read-out: Human LINE-1 IC50 (μM), Human L1 activity inhibition; for human LINE-1 inhibitor activity compared to the other reverse transcriptase inhibitors tested (in words): summary of Table 1
Procedure: Islatravir and other compounds were tested for inhibition of retrotransposition activity of human LINE-1 in HeLa cells according to the following procedure.
HeLa cervical cancer cells were cultivated at 37° C. in a humidified 5% CO2 incubator in Dulbecco's Modified Eagle's Medium (DMEM)—high glucose, with 4500 mg/L glucose, L-glutamine, sodium pyruvate and sodium bicarbonate (Sigma), supplemented with 10% of heat inactivated fetal bovine serum (Thermo Fisher).
Assays were performed using reporter plasmid pYX017 as described (Xie, et al., 2011) with several modifications. The reporter assay was performed in 96-well white optical bottom plates. HeLa cells were seeded in wells 24 h prior to transfection and compound treatment so that cells were approximately 30% confluent on the day of transfection. Different cell plating densities were tested and a density of 2×10^3 cells was determined to be optimal.
Compounds were resuspended in DMSO. Serial dilutions (1:3) were prepared in DMSO. Medium containing different concentrations of the compounds were prepared by adding 2 μl of the compound dilution to 1 ml of the culture medium. The final concentration of DMSO in the medium was 0.2%.
FuGENE® HD transfection reagent (Promega, E2311, Lot 382574 and Lot 397842) was used to transfect the plasmids into the cells. The transfection reagent: DNA mixture was prepared in OpiMEM (Thermo Fisher) according to manufacturer's instructions. Different ratios of transfection reagent to DNA were tested and a ratio of 3:1 was determined to be optimal. Culture medium was removed from the cells and discarded. The transfection reagent: DNA mixture (5 μl) was mixed with the compound containing medium (100 μl/well) and this was added onto the cells of each well. Cells were incubated at 37° C./5% C02 for different incubation time. A 72 h incubation time was determined to be optimal.
Luciferase reporter activity was quantified with the Dual-Luciferase® Reporter Assay System (Promega) according to manufacturer's instructions for multiwell plates except that cells were lysed directly on the multiwell plate with 30 μl of the passive lysis buffer (PLB) for 20 min at room temperature, with gentle shaking to ensure complete cell lysis.
Firefly and Renilla luciferase signals were measured using a SpectraMax i3x Multi-Mode Microplate Reader. Integration times of 100 ms and 10 ms were used to measure the Firefly and Renilla signals respectively. Relative L1 activity is calculated as Firefly/Renilla*1000 or Firefly/Renilla*10,000. Dose response inhibition data were fit to a four parameter logistic equation using non-linear regression (using Graphpad Prism 8), to determine IC50 values for each inhibitor.

Row | Compound | IC50 (Homo sapiens) [µM] | also measured
1 | C#C[C@]1(CO)O[C@@H](n2cc(C)c(O)nc2=O)C[C@@H]1O [Cpd. No. 2] | 0.393 | –
2 | C#C[C@]1(CO)O[C@@H](n2ccc(N)nc2=O)C[C@@H]1O [Cpd. No. 7, 4-amino-1-((2R,4S,5R)-5-ethynyl-4-hydroxy-5 (hydroxymethyl)tetrahydrofuran-2-yl)pyrimidin-2(1H)-one] | 0.0091 | –
3 | C=C[C@]1(CO)O[C@@H](n2ccc(N)nc2=O)C[C@@H]1O [Cpd. No. 24] | 0.008 | –
4 | CC[C@]1(CO)O[C@@H](n2cnc3c(O)nc(N)nc32)C[C@@H]1O [Cpd. No. 27] | 0.003 | –
5 | C[C@@H]1CCO[C@H]2Cn3cc(C(=O)NCc4ccc(F)cc4F)c(=O)c(O)c3C(=O)N12 [Dolutegravir sodium] | > 9.38 | –
6 | O=C1Nc2ccc(Cl)cc2[C@@](C#CC2CC2)(C(F)(F)F)O1 [Efavirenz] | > 0.25 | –
7 | C#C[C@]1(CO)O[C@@H](n2cnc3c(N)nc(F)nc32)C[C@@H]1O [Islatravir, 2′-deoxy-4′-ethynyl-2-fluoroadenosine] | – | human LINE-1 inhibitor activity compared to the other reverse transcriptase inhibitors tested (in words): unexpectedly better human LINE-1 inhibitor activity; human LINE-1 inhibitor activity compared to the other reverse transcriptase inhibitors tested (in words) (listed as islatravir): surprisingly potent
8 | Cc1nnc(C(=O)NC(C)(C)c2nc(C(=O)NCc3ccc(F)cc3)c(O)c(=O)n2C)o1 [Raltegravir potassium] | > 9.86 | –
9 | Cc1cc(/C=C/C#N)cc(C)c1Nc1ccnc(Nc2ccc(C#N)cc2)n1 [Rilpivirine] | > 15.1 | –
10 | Cc1cn([C@H]2C=C[C@@H](CO)O2)c(=O)[nH]c1=O [Stavudine] | 0.75 | –
11 | C[C@H](Cn1cnc2c(N)ncnc21)OCP(=O)(O)O [Tenofovir] | – | IC50: 2.77 µM
12 | Cc1cn([C@H]2C[C@H](N=[N+]=[N-])[C@@H](CO)O2)c(=O)[nH]c1=O [Zidovudine] | 0.81 | –

Second part, led by results:

Row | IC50 (Homo sapiens) [µM] | Compound | also measured
13 | > 12.4 | O=C(NCc1c(F)cc(F)cc1F)c1cn2c(c(O)c1=O)C(=O)N1[C@H]3CC[C@H](C3)O[C@@H]1C2 [Bictegravir] | –
14 | 0.07 | C#C[C@@]1(CO)C=C[C@H](n2cc(C)c(=O)[nH]c2=O)O1 [Censavudine, 4′-ethynylstavudine] | human LINE-1 inhibitor activity compared to the other reverse transcriptase inhibitors tested (in words): unexpectedly better human LINE-1 inhibitor activity; also recorded: surprisingly potent
15 | 0.489 | C#C[C@]1(CO)O[C@@H](n2cc(Br)c(O)nc2=O)C[C@@H]1O [Cpd. No. 4] | –
16 | 0.0209 | C#C[C@]1(CO)O[C@@H](n2cc(F)c(N)nc2=O)C[C@@H]1O [Cpd. No. 9] | –
17 | 0.00051 | C#C[C@]1(CO)O[C@@H](n2cnc3c(O)nc(N)nc32)C[C@@H]1O [Cpd. No. 13] | –
18 | 0.011 | C=C[C@]1(CO)O[C@@H](n2cnc3c(N)nc(F)nc32)C[C@@H]1O [Cpd. No. 20] | –
19 | > 50 | C#C[C@]1(CO)O[C@@H](n2cnc3c(N)ncnc32)C[C@@H]1O [Cpd. No. 23] | –
20 | 2 | CC[C@]1(CO)O[C@@H](n2cc(C)c(=O)[nH]c2=O)C[C@@H]1O [Cpd. No. 26] | –
21 | 0.09 | Nc1nc(=O)n([C@@H]2C=C[C@H](CO)O2)cc1F [Elvucitabine] | –
22 | 0.64 | Nc1ccn([C@@H]2CS[C@H](CO)O2)c(=O)n1 [Lamivudine] | –
23 | > 50 | Cc1ccnc2c1NC(=O)c1cccnc1N2C1CC1 [Nevirapine] | –
24 | 0.2 | CC(C)OC(=O)OCOP(=O)(CO[C@H](C)Cn1cnc2c(N)ncnc21)OCOC(=O)OC(C)C [Tenofovir disoproxil] | –
